Experimental data reported in ChEMBL document CHEMBL4138123, “Design, synthesis and biological evaluation of novel pyrazolochalcones as potential modulators of PI3K/Akt/mTOR pathway and inducers of apoptosis in breast cancer cells” (Eur J Med Chem, 2017).

Legend:
Assay type in all cases: functional
A549 = test: Cytotoxicity against human A549/ATCC cells assessed as cell growth at 100 uM after 48 hrs by sulforhodamine B assay relative to control; conditions: A549, 48 h, read-out: Activity
MOLT-4 [1] = test: Cytotoxicity against human MOLT4 cells assessed as growth inhibition after 48 hrs by sulforhodamine B assay; conditions: MOLT-4, 48 h; for CC50: read-out: LC50 (the source's name)
SK-MEL-5 = test: Cytotoxicity against human SK-MEL-5 cells assessed as cell growth at 100 uM after 48 hrs by sulforhodamine B assay relative to control; conditions: SK-MEL-5, 48 h, read-out: Activity
HT-29 = test: Cytotoxicity against human HT-29 cells assessed as cell growth at 1 uM after 48 hrs by sulforhodamine B assay relative to control; conditions: HT-29, 48 h, read-out: Activity
BT-549 [2] = test: Cytotoxicity against human BT549 cells assessed as cell growth at 0.1 uM after 48 hrs by sulforhodamine B assay relative to control; conditions: BT-549, 48 h, read-out: Activity
A498 = test: Cytotoxicity against human A498 cells assessed as cell growth at 10 uM after 48 hrs by sulforhodamine B assay relative to control; conditions: A498, 48 h, read-out: Activity
BT-549 [3] = test: Cytotoxicity against human BT549 cells assessed as cell growth at 10 uM after 48 hrs by sulforhodamine B assay relative to control; conditions: BT-549, 48 h, read-out: Activity
MDA-MB-435 = test: Cytotoxicity against human MDA-MB-435 cells assessed as cell growth at 0.1 uM after 48 hrs by sulforhodamine B assay relative to control; conditions: MDA-MB-435, 48 h, read-out: Activity
HL-60(TB) [4] = test: Cytotoxicity against human HL-60(TB) cells assessed as cell growth at 0.1 uM after 48 hrs by sulforhodamine B assay relative to control; conditions: HL-60, 48 h, read-out: Activity
HL-60(TB) [5] = test: Cytotoxicity against human HL-60(TB) cells assessed as cell growth at 0.01 uM after 48 hrs by sulforhodamine B assay relative to control; conditions: HL-60, 48 h, read-out: Activity
MOLT-4 [6] = test: Cytotoxicity against human MOLT4 cells assessed as cell growth at 100 uM after 48 hrs by sulforhodamine B assay relative to control; conditions: MOLT-4, 48 h, read-out: Activity
SR [7] = test: Cytotoxicity against human SR cells assessed as cell growth at 0.1 uM after 48 hrs by sulforhodamine B assay relative to control; conditions: read-out: Activity
U-251 [8] = test: Cytotoxicity against human U251 cells assessed as cell growth at 1 uM after 48 hrs by sulforhodamine B assay relative to control; conditions: U-251, 48 h, read-out: Activity
HCT-116 = test: Cytotoxicity against human HCT116 cells assessed as cell growth at 100 uM after 48 hrs by sulforhodamine B assay relative to control; conditions: HCT-116, 48 h, read-out: Activity
NCI-H460 = test: Cytotoxicity against human NCI-H460 cells assessed as growth inhibition after 48 hrs by sulforhodamine B assay; conditions: NCI-H460, 48 h
BT-549 [9] = test: Cytotoxicity against human BT549 cells assessed as cell growth at 100 uM after 48 hrs by sulforhodamine B assay relative to control; conditions: BT-549, 48 h, read-out: Activity
UACC-257 [10] = test: Cytotoxicity against human UACC257 cells assessed as cell growth at 10 uM after 48 hrs by sulforhodamine B assay relative to control; conditions: UACC-257, 48 h, read-out: Activity
NCI-H322M = test: Cytotoxicity against human NCI-H322M cells assessed as cell growth at 1 uM after 48 hrs by sulforhodamine B assay relative to control; conditions: read-out: Activity
Malme-3M [11] = test: Cytotoxicity against human MALME-3M cells assessed as growth inhibition after 48 hrs by sulforhodamine B assay
HCT-15 [12] = test: Cytotoxicity against human HCT15 cells assessed as cell growth at 0.01 uM after 48 hrs by sulforhodamine B assay relative to control; conditions: HCT-15, 48 h, read-out: Activity
RPMI-8226 = test: Cytotoxicity against human RPMI8226 cells assessed as growth inhibition after 48 hrs by sulforhodamine B assay; conditions: RPMI-8226, 48 h
U-251 [13] = test: Cytotoxicity against human U251 cells assessed as cell growth at 10 uM after 48 hrs by sulforhodamine B assay relative to control; conditions: U-251, 48 h, read-out: Activity
SK-OV-3 [14] = test: Cytotoxicity against human SKOV3 cells assessed as cell growth at 0.1 uM after 48 hrs by sulforhodamine B assay relative to control; conditions: SK-OV-3, 48 h, read-out: Activity
NCI-H226 = test: Cytotoxicity against human NCI-H226 cells assessed as cell growth at 0.01 uM after 48 hrs by sulforhodamine B assay relative to control; conditions: NCI-H226, 48 h, read-out: Activity
OVCAR-8 = test: Cytotoxicity against human OVCAR8 cells assessed as growth inhibition after 48 hrs by sulforhodamine B assay; conditions: OVCAR-8, 48 h
Malme-3M [15] = test: Cytotoxicity against human MALME-3M cells assessed as cell growth at 0.1 uM after 48 hrs by sulforhodamine B assay relative to control; conditions: read-out: Activity
UACC-257 [16] = test: Cytotoxicity against human UACC257 cells assessed as cell growth at 0.01 uM after 48 hrs by sulforhodamine B assay relative to control; conditions: UACC-257, 48 h, read-out: Activity
UO-31 = test: Cytotoxicity against human UO31 cells assessed as cell growth at 0.01 uM after 48 hrs by sulforhodamine B assay relative to control; conditions: UO-31, 48 h, read-out: Activity
RXF 393 = test: Cytotoxicity against human RXF393 cells assessed as growth inhibition after 48 hrs by sulforhodamine B assay; conditions: RXF 393, 48 h
SR [17] = test: Cytotoxicity against human SR cells assessed as growth inhibition after 48 hrs by sulforhodamine B assay; conditions: for CC50: read-out: LC50 (the source's name)
HCT-15 [18] = test: Cytotoxicity against human HCT15 cells assessed as growth inhibition after 48 hrs by sulforhodamine B assay; conditions: HCT-15, 48 h
CCRF-CEM = test: Cytotoxicity against human CCRF-CEM cells assessed as cell growth at 1 uM after 48 hrs by sulforhodamine B assay relative to control; conditions: read-out: Activity
SK-OV-3 [19] = test: Cytotoxicity against human SKOV3 cells assessed as cell growth at 100 uM after 48 hrs by sulforhodamine B assay relative to control; conditions: SK-OV-3, 48 h, read-out: Activity
ACHN = test: Cytotoxicity against human ACHN cells assessed as cell growth at 10 uM after 48 hrs by sulforhodamine B assay relative to control; conditions: read-out: Activity
MDA-MB-468 = test: Cytotoxicity against human MDA-MB-468 cells assessed as cell growth at 1 uM after 48 hrs by sulforhodamine B assay relative to control; conditions: MDA-MB-468, 48 h, read-out: Activity
SF-539 = test: Cytotoxicity against human SF539 cells assessed as cell growth at 0.1 uM after 48 hrs by sulforhodamine B assay relative to control; conditions: SF-539, 48 h, read-out: Activity

`COc1cc(-c2cc(/C=C/C(=O)c3ccc(N)cc3)[nH]n2)cc(OC)c1OC` gave a growth at 100 µM (A549) of -52%, a GI50 (MOLT-4 [1]) of 1.91 µM and a TGI (MOLT-4 [1]) of 8.51 µM. For the same molecule, the CC50 (MOLT-4 [1]) was over 100 µM, the growth at 100 µM (SK-MEL-5) was -94% and the growth at 1 µM (HT-29) was 82%. The growth at 0.1 µM (BT-549 [2]) was 93%, the growth at 10 µM (A498) was -43% and the growth at 10 µM (BT-549 [3]) was -89%. The growth at 0.1 µM (MDA-MB-435) was 95%, the growth at 0.1 µM (HL-60(TB) [4]) was 99% and the growth at 0.01 µM (HL-60(TB) [5]) was 99%. For the same molecule, the growth at 100 µM (MOLT-4 [6]) was -20%, the growth at 0.1 µM (SR [7]) was 87% and the growth at 1 µM (U-251 [8]) was 76%. It also gave a growth at 100 µM (HCT-116) of -73%, a GI50 (NCI-H460) of 1.8 µM and an LC50 (NCI-H460) of 44.8 µM. It also gave a TGI (NCI-H460) of 5.1 µM, a growth at 100 µM (BT-549 [9]) of -97% and a growth at 10 µM (UACC-257 [10]) of -59%. It also gave a growth at 1 µM (NCI-H322M) of 94%, a GI50 (Malme-3M [11]) of 2.05 µM and an LC50 (Malme-3M [11]) of 14.4 µM. The TGI (Malme-3M [11]) was 4.71 µM, the growth at 0.01 µM (HCT-15 [12]) was 92% and the GI50 (RPMI-8226) was 0.47 µM. It also gave an LC50 (RPMI-8226) of over 100 µM, a TGI (RPMI-8226) of 2.77 µM and a growth at 10 µM (U-251 [13]) of -96%. The growth at 0.1 µM (SK-OV-3 [14]) was 98%, the growth at 0.01 µM (NCI-H226) was 92% and the GI50 (OVCAR-8) was 2.39 µM. The LC50 (OVCAR-8) was 34.9 µM, the TGI (OVCAR-8) was 9.76 µM and the growth at 0.1 µM (Malme-3M [15]) was 102%. For the same molecule, the growth at 0.01 µM (UACC-257 [16]) was 94%, the growth at 0.01 µM (UO-31) was 91% and the GI50 (RXF 393) was 1.35 µM. It also gave an LC50 (concentration killing 50% of cells) (RXF 393) of 7.79 µM, a TGI (RXF 393) of 3.24 µM and a GI50 (SR [17]) of 0.32 µM. The TGI (SR [17]) was 2.75 µM, the CC50 (SR [17]) was over 100 µM and the GI50 (HCT-15 [18]) was 1.37 µM. The LC50 (HCT-15 [18]) was over 100 µM, the TGI (HCT-15 [18]) was 6.76 µM and the growth at 1 µM (CCRF-CEM) was 36%. The growth at 100 µM (SK-OV-3 [19]) was -98%, the growth at 10 µM (ACHN) was -61% and the growth at 1 µM (MDA-MB-468) was 50%. For the same molecule, the growth at 0.1 µM (SF-539) was 99%.

For `COc1ccc(-c2cc(/C=C/C(=O)c3ccc(OC)c(OC)c3)[nH]n2)cc1`, the growth at 100 µM (A549) was -45%, the GI50 (MOLT-4 [1]) was 2.67 µM and the TGI (MOLT-4 [1]) was 8 µM. It also gave a CC50 (MOLT-4 [1]) of over 100 µM, a growth at 100 µM (SK-MEL-5) of -100% and a growth at 1 µM (HT-29) of 77%. For the same molecule, the growth at 0.1 µM (BT-549 [2]) was 105%, the growth at 10 µM (A498) was -57% and the growth at 10 µM (BT-549 [3]) was -70%. For the same molecule, the growth at 0.1 µM (MDA-MB-435) was 95%, the growth at 0.1 µM (HL-60(TB) [4]) was 104% and the growth at 0.01 µM (HL-60(TB) [5]) was 102%. It also gave a growth at 100 µM (MOLT-4 [6]) of -33%, a growth at 0.1 µM (SR [7]) of 106% and a growth at 1 µM (U-251 [8]) of 57%. For the same molecule, the growth at 100 µM (HCT-116) was -100%, the GI50 (NCI-H460) was 1.64 µM and the LC50 (NCI-H460) was 22.8 µM. The TGI (NCI-H460) was 4.34 µM, the growth at 100 µM (BT-549 [9]) was -99% and the growth at 10 µM (UACC-257 [10]) was -67%. It also gave a growth at 1 µM (NCI-H322M) of 72%, a GI50 (Malme-3M [11]) of 1.62 µM and an LC50 (Malme-3M [11]) of 7.38 µM. It also gave a TGI (Malme-3M [11]) of 3.45 µM, a growth at 0.01 µM (HCT-15 [12]) of 95% and a GI50 (RPMI-8226) of 0.32 µM. The LC50 (RPMI-8226) was 8.16 µM, the TGI (RPMI-8226) was 1.33 µM and the growth at 10 µM (U-251 [13]) was -97%. It also gave a growth at 0.1 µM (SK-OV-3 [14]) of 109%, a growth at 0.01 µM (NCI-H226) of 83% and a GI50 (OVCAR-8) of 2.16 µM. It also gave an LC50 (OVCAR-8) of 57.6 µM, a TGI (OVCAR-8) of 10.4 µM and a growth at 0.1 µM (Malme-3M [15]) of 89%. The growth at 0.01 µM (UACC-257 [16]) was 92%, the growth at 0.01 µM (UO-31) was 86% and the GI50 (RXF 393) was 1.39 µM. For the same molecule, the LC50 (concentration killing 50% of cells) (RXF 393) was 6.2 µM, the TGI (RXF 393) was 2.94 µM and the GI50 (SR [17]) was 0.67 µM. It also gave a TGI (SR [17]) of 3.74 µM, a CC50 (SR [17]) of over 100 µM and a GI50 (HCT-15 [18]) of 1.35 µM. The LC50 (HCT-15 [18]) was 9.41 µM, the TGI (HCT-15 [18]) was 3.56 µM and the growth at 1 µM (CCRF-CEM) was 63%. For the same molecule, the growth at 100 µM (SK-OV-3 [19]) was -95%, the growth at 10 µM (ACHN) was -58% and the growth at 1 µM (MDA-MB-468) was 61%. For the same molecule, the growth at 0.1 µM (SF-539) was 94%.
